According to article PMC11879040, “Advancing systemic toxicity risk assessment: Evaluation of a NAM-based toolbox approach” (Toxicological Sciences, 2024):
Counter-ions that a name gives are not always drawn. Like-named read-outs stand apart in the source and are kept apart here.

Assays:
[1] = biological target: Potassium voltage-gated channel subfamily H member 2 hERG, KCNH2 (h) (Homo sapiens, UniProt Q12809); settings: human, 100 µM
HepG2 cells [2] = experiment: High-throughput transcriptomics (HTTr, TempO-Seq), HepG2, 24 h; format: cell-based, human; settings: HepG2; for pod_httr_bifrost PoD: HTTr BIFROST PoD; for podl_path_minbmd PoD: HTTr minimum pathway BMD(L)
Method: (§1) HepG2, HepaRG, and MCF7 cells were treated with each compound for 24 h across a dose range of 7 concentrations and lysed using TempO-Seq lysis buffer (BioSpyder Technologies, proprietary kit, see [Middleton et al. 2022] for method details). Sequencing was performed using TempO-Seq (BioClavis) version 2 of the human whole transcriptome panel and analyzed as described previously in Middleton et al.

MCF7 cells = experiment: High-throughput transcriptomics (HTTr, TempO-Seq), MCF7, 24 h; format: cell-based, human; settings: MCF-7; for pod_httr_bifrost PoD: HTTr BIFROST PoD; for podl_path_minbmd PoD: HTTr minimum pathway BMD(L)
Method: as §1

[3] = system: Glutamate receptor ionotropic NMDA 1 non-selective, GRIN1 (r)
[4] = biological target: T1, Estrogen receptor, ER1 (h) (Homo sapiens, UniProt P03372); experiment: IPP ER1 coactivator recruitment (agonist); format: biochemical; settings: 100 uM, estriol, * denotes assay interference (2-Amino-6-chloro-4-nitrophenol, HC Red 3)
T1 construct: purchased Eurofins Cerep (SafetyScreen44-based IPP panel)
T1 sequence (P03372 1-595): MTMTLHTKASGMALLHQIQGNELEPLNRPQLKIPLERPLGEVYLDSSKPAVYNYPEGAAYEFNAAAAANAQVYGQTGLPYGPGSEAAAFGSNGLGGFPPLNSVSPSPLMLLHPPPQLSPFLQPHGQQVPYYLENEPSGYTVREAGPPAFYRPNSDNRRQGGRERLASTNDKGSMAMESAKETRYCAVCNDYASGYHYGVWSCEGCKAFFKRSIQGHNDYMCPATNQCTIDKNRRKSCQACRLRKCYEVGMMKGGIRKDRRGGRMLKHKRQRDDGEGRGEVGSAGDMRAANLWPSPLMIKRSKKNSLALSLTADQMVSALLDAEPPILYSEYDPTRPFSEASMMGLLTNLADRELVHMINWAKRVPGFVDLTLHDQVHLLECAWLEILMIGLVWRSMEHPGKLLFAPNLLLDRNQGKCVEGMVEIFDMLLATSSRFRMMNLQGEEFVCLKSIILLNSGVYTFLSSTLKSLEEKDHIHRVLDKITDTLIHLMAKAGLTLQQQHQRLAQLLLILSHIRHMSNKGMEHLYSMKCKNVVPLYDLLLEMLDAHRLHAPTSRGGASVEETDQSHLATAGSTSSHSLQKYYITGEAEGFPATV

HepG2 cells [5] = experiment: Cell stress panel (CSP), 24 h, 8 concentrations, BIFROST global PoD; format: cell-based; settings: HepG2; cell stress panel PoD
Method: Compounds were tested using the previously developed cell stress panel ([Hatherell et al. 2020]) and the expanded biomarker panel outlined in Middleton et al. HepG2 cells were treated with all compounds for 24 h across 8 concentrations prior to biomarker analysis. The same plate layout and number of replicates (3 biological and 2 technical) were used as previously for each assay within the panel.

Tubulin (r) = experiment: IPP Tubulin binding; parameters: species or system rat; settings: ligand/control Colchicine
[6] = biological target: T2, Adenosine receptor A2a, ADORA2A (h) (Homo sapiens, UniProt P29274); experiment: IPP ADORA2A binding (agonist radioligand); settings: IPP screening at 100 uM; control NECA
T2 construct: purchased Eurofins Cerep (SafetyScreen44-based IPP panel)

[7] = system: Potassium Voltage-Gated Channel Kv non-selective, KCNQ1 (r); experiment: IPP KCNQ1 binding (antagonist radioligand); parameters: species or system rat; settings: IPP screening at 100 uM; control α-dendrotoxin
HepaRG cells = experiment: High-throughput transcriptomics (HTTr, TempO-Seq), HepaRG, 24 h; format: cell-based, human; settings: HepaRG; for pod_httr_bifrost PoD: HTTr BIFROST PoD; for podl_path_minbmd PoD: HTTr minimum pathway BMD(L)
Method: as §1

[8] = system: Sodium channel protein type 5 subunit alpha (site 2), SCN5A (r); format: binding, rat; settings: IPP screening at 100 uM; control veratridine
[9] = human
rat = settings: cited from earlier work; for PoD (NOAEL): ref ToxRefDB/Paul-Friedman et al. (2020)/regulatory opinions
[10] = system: Thyroid hormone receptor alpha, THRA (h); experiment: IPP THRA coactivator recruitment (agonist); format: biochemical, human; settings: agonist, T3
[11] = biological target: T1, Estrogen receptor, ER1 (h); experiment: IPP ER1 coactivator recruitment (antagonist); format: biochemical; settings: 100 uM, estriol, * denotes assay interference (2-Amino-6-chloro-4-nitrophenol, HC Red 3)
[12] = system: Gamma-aminobutyric acid receptor subunit alpha-1 BZD site, GABRA1A (r); format: binding, rat
[13] = system: 63 targets with known safety liabilities; experiment: In vitro pharmacological profiling (IPP) panel, screening at 10 or 100 µM and dose response, minimum IC50/AC50; format: biochemical; settings: lowest AC50 across IPP panel (systemic targets); cell_type -; read-out: ipp_lowest_ac50_systemic PoD
[14] = cited from earlier work
[15] = IPP screening at 100 uM, control CGS 19755
[16] = 100 uM, * denotes assay interference (2-Amino-6-chloro-4-nitrophenol, HC Red 3)
[17] = IPP screening at 100 uM, control diazepam
[18] = IV bolus 391 mg, healthy 2 male 3 female, calibration, ref Pentikäinen et al. 1979
[19] = IV infusion 195 mg, 4 healthy male, validation, ref Tucker et al. 1981
[20] = Oral 391 mg (IR: Tablet), fasted, healthy 2 male 3 female, calibration, ref Pentikäinen et al. 1979
[21] = Oral 391 mg (IR: Tablet), fed, healthy 12 male 4 female, validation, ref Tucker et al. 1981

T2 sequence (P29274 whole entry): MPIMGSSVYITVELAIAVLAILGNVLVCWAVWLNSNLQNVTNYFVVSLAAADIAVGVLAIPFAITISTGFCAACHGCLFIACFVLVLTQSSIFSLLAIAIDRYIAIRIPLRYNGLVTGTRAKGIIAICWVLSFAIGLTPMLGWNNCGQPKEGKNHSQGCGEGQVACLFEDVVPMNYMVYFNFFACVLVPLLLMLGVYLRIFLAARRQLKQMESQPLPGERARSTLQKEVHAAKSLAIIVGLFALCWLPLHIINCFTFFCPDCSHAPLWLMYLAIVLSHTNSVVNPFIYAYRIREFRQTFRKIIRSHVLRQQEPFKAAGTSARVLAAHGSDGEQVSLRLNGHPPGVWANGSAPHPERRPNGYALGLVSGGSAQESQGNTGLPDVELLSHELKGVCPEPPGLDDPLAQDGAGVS
Chain of Potassium voltage-gated channel subfamily H member 2 hERG, KCNH2 (h) (Q12809 whole entry): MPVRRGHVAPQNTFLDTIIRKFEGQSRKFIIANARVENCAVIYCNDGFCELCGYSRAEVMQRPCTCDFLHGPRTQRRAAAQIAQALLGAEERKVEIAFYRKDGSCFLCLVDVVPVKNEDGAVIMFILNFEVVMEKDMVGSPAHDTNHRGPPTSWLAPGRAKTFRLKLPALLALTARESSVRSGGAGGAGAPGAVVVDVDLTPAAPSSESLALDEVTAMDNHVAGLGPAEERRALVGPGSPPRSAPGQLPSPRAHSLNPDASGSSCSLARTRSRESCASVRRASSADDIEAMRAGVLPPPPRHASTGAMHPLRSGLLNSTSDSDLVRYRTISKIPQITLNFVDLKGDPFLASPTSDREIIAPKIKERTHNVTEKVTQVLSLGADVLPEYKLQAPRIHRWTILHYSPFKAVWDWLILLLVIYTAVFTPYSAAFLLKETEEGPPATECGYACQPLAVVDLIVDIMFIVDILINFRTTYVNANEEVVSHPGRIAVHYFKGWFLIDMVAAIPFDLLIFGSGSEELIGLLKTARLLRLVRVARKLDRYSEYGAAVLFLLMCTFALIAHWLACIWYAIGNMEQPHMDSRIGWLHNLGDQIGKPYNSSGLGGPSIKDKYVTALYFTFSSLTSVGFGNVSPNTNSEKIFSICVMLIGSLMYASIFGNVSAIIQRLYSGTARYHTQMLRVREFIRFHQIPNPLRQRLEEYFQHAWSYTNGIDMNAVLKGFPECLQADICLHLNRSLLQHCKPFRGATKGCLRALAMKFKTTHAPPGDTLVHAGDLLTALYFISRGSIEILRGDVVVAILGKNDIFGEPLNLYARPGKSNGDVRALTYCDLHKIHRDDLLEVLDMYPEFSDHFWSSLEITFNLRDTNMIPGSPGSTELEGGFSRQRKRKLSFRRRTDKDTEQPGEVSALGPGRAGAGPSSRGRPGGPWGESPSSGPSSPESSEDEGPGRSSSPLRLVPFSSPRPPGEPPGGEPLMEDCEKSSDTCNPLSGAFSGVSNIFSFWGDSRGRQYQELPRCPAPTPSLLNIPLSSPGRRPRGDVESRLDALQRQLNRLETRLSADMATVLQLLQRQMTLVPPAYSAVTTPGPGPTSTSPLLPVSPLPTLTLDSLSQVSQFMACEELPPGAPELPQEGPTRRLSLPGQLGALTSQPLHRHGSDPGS

CCCCCCC(O)CO (centres unmarked) [1,2-Octanediol, Octane-1,2-diol]
IPP screening %, Specific binding [1]: 14.6% | pod_httr_bifrost PoD (HepG2 cells [2]): 108.846 µM | podl_path_minbmd PoD (HepG2 cells [2]): 1029.23 µM | pod_httr_bifrost PoD (MCF7 cells): 48.9281 µM | podl_path_minbmd PoD (MCF7 cells): 968.894 µM | Specific binding [3, 15]: 3.1% | IPP screening %, Coactivator recruitment [4]: 0.0% | pod_cell_stress PoD (HepG2 cells [5]): 272.296 µM | IPP screening %, Specific binding (Tubulin (r); 100 uM): 3.0% | Specific binding [6]: 1.4% | Specific binding [7]: -4.4% | pod_httr_bifrost PoD (HepaRG cells): 103.989 µM | podl_path_minbmd PoD (HepaRG cells): 259.271 µM | Specific binding [8]: 26.3% | risk [9]: 0 | PoD (NOAEL) (rat; rat, developmental): 150 mg/kg bw/day | IPP screening %, Coactivator recruitment [10, 16]: 2.0% | IPP screening %, Coactivator recruitment [11]: 0.0% | Specific binding [12, 17]: 10.0%

Cc1c(O)cccc1O [2-methyl-1,3-benzenediol, 2-Methylbenzene-1,3-diol]
IPP screening %, Specific binding [1]: 3.3% | pod_httr_bifrost PoD (HepG2 cells [2]): 0.2182 µM | podl_path_minbmd PoD (HepG2 cells [2]): 169.35 µM | pod_httr_bifrost PoD (MCF7 cells): 1.165 µM | podl_path_minbmd PoD (MCF7 cells): 52.4925 µM | Specific binding [3, 15]: 1.8% | IPP screening %, Coactivator recruitment [4]: 13.0% | pod_cell_stress PoD (HepG2 cells [5]): 8.64 µM | IPP screening %, Specific binding (Tubulin (r); 100 uM): -14.0% | Specific binding [6]: 8.4% | Specific binding [7]: 27.5% | pod_httr_bifrost PoD (HepaRG cells): 22.9719 µM | podl_path_minbmd PoD (HepaRG cells): 117.879 µM | Specific binding [8]: 41.6% | AC50 [13]: 900 nM | risk [9]: 0 | NOAEL (rat; 90-day study, body weight changes to rats, ref [3,4]): 100 mg/kg bw/day | PoD (NOAEL) (rat; rat, 90 day oral rat study): 100 mg/kg bw/day | NOAEL for teratogenicity and maternal toxicity (rat; ref [3,4]): 400 mg/kg bw/day | IPP screening %, Coactivator recruitment [10, 16]: 2.0% | IPP screening %, Coactivator recruitment [11]: -6.0% | Specific binding [12, 17]: 6.5%

O=C(O)COCCN1CCN(C(c2ccccc2)c2ccc(Cl)cc2)CC1 (centres unmarked) [Cetirizine dihydrochloride, (2-{4-[(4-Chlorophenyl)(phenyl)methyl]piperazin-1-yl}ethoxy)acetic acid--hydrogen chloride (1/2)]
Specific binding [3]: 1.4% | pod_cell_stress PoD (HepG2 cells [5]): 67.3241 µM | IPP screening %, Specific binding (Tubulin (r); 10 uM): 14.0% | risk [9]: 1 | IPP screening %, Coactivator recruitment ([10]; 10 uM): 2.0%

CN(C)C(=N)N=C(N)N [Metformin, N,N-Dimethyltriimidodicarbonic diamide]
Reported AUC0-t [14, 18]: 23529 ng·h/mL | Reported cmax [14, 18]: 47.318 µg/mL | Reported tmax [14, 18]: 4.2 min | Reported AUC0-t [14, 19]: 8905.5 ng·h/mL | Reported cmax [14, 19]: 8.93 µg/mL | Reported tmax [14, 19]: 0 min | Reported AUC0-t [14, 20]: 10696 ng·h/mL | Reported cmax [14, 20]: 3.1615 µg/mL | Reported tmax [14, 20]: 43.11 min | Reported AUC0-t [14, 21]: 11234 ng·h/mL | Reported cmax [14, 21]: 2 µg/mL | Reported tmax [14, 21]: 104 min | pod_httr_bifrost PoD (HepG2 cells [2]): 107.11 µM | podl_path_minbmd PoD (HepG2 cells [2]): 592.816 µM | pod_httr_bifrost PoD (MCF7 cells): 45.2765 µM | podl_path_minbmd PoD (MCF7 cells): 722.808 µM | Specific binding [3]: -9.9% | pod_cell_stress PoD (HepG2 cells [5]): 133.042 µM | IPP screening %, Specific binding (Tubulin (r); 100 uM): 14.0% | Specific binding [6]: -1.4% | pod_httr_bifrost PoD (HepaRG cells): 80.527 µM | podl_path_minbmd PoD (HepaRG cells): 386.965 µM | risk [9]: 1 | IPP screening %, Coactivator recruitment [10, 16]: 4.0% | Specific binding [12]: 0.6%

O=C(O)c1ccc2c(c1)C(=O)OC2=O [Trimellitic anhydride, 1,3-Dioxo-1,3-dihydro-2-benzofuran-5-carboxylic acid]
IPP screening %, Specific binding [1]: -16.7% | Specific binding [3, 15]: 9.9% | IPP screening %, Coactivator recruitment [4]: 1.0% | IPP screening %, Specific binding (Tubulin (r); 100 uM): 2% | Specific binding [6]: 6.5% | Specific binding [7]: -6.6% | Specific binding [8]: 30.3% | PoD (NOEL) (rat; rat, repeat dose, ref ECHA dossier): 300 mg/kg bw/day | NOAEL, dietary intake (rat; repeat dose, before adjustment, ref ECHA dossier): Adjusted from NOAEL of 10000ppm dietary intake - ECHA dossier. Other studies referenced are for trimellitic acid. | IPP screening %, Coactivator recruitment [10, 16]: 1.0% | IPP screening %, Coactivator recruitment [11]: -1.0% | Specific binding [12, 17]: 12.5%
